# According to patent US7312219B2, “Heteroaromatic inhibitors of fructose 1,6-bisphosphatase” (Metabasis Therapeutics, Inc., priority 1998, dated 2007):
# Structures can show the parent of a compound that is named as a salt. Where two headings read alike, the source gives them in different places.
# Legend:
# [1] = Estimation of the Oral Bioavailability of Phosphonic Acids and their Prodrugs; type: in vivo, rat; conditions: fasted rats, oral 10–50 mg/kg, 24 h urinary recovery of phosphonic acid, oral vs intravenous
# Protocol: Phosphonic acids were dissolved in water, and the solution adjusted to neutrality with sodium hydroxide. Prodrugs were dissolved in 10% ethanol/90% polyethlene glycol (mw 400). Compound was administered by oral gavage to 18-hour fasted Sprague-Dawley rats (220–250 g) at doses ranging from 10–50 mg/kg. The rats were subsequently placed in metabolic cages and urine was collected for 24 hours. The quantity of phosphonic acid excreted into urine was determined by HPLC analysis as described in Example G. In a separate study, urinary recovery was determined following intravenous (tail vein) administration of compound (in the case of the prodrugs, the appropriate parent phosphonic acid was administered i.v.).
# [2] = Analysis of Drug Levels and Liver Accumulation in Rats; type: in vivo, rat; conditions: fasted rats, 10 mgs/kg i.v., one hour post injection; for concentration at 1 h: Sprague-Dawley, rat, iv, read-out: Plasma Conc.; for Plasma Conc. / concentration at 1 h: plasma
# Protocol: The compound was dissolved in water and the solution adjusted to neutrality with NaOH. One hour post injection rats were anesthetized with halothane and a liver biopsy (approx. 1 g) was taken as well as a blood sample (2 ml) from the posterior vena cava. A heparin flushed syringe and needle were used for blood collection. The liver sample was immediately homogenized in ice-cold 10% perchloric acid (3 ml), centrifuged, and the supernatant neutralized with ⅓rd volume of 3 M KOH/3 M KHCO3. […] Plasma was prepared from the blood sample by centrifugation and extracted by addition of methanol to 60% (v/v). The methanolic extract was clarified by centrifugation and filtration and then analyzed by HPLC as described above.
# [3] = test system: Fasted Rat; experiment: Glucose Lowering Following Oral Administration to the Fasted Rat; type: in vivo; conditions: oral gavage, 18-hour fasted rats, relative to saline controls
# Protocol: Compounds were administered by oral gavage to 18-hour fasted, Sprague Dawley rats (250–300 g, n =3/4/group). Phosphonic acids were prepared in deionized water, and the solution adjusted to neutrality with solidum hydroxide. Prodrugs were dissolved in polyethylene glycol (mw 400). […] The table below indicates the maximum glucose lowering achieved relative to control animals dosed with saline.
# [4] = test system: Fasted Rats; experiment: Blood Glucose Lowering Following Intravenous Administration to Fasted Rats; type: in vivo, rat; conditions: 18 h fasted Sprague Dawley rats, 1 hour, relative to saline-treated controls
# Protocol: Inhibitors were disolved in water and the solution adjusted to neutrality with NaOH. Blood samples were obtained from the tail vein of conscious animals just prior to injection and after 1 hour. Blood glucose was measured using a HemoCue Inc. glucose analyzer according to the instructions of the manufacturer.
# [5] = Oral Absorption Determinations of Prodrugs in the Rat; conditions: normal fed rats; for % excreted i.p.: 30 mg/kg intraperitoneal; for % excreted i.p. / % excreted p.o.: parent compound 3.1 in 24 h urine; for % excreted p.o.: 30 mg/kg oral gavage; for % absorption: 30 mg/kg, urinary excretion oral vs intraperitoneal
# [6] = test system: Gluconeogenesis in Rat Hepatocytes; experiment: Inhibition of Gluconeogenesis in Rat Hepatocytes; type: cell-based; conditions: 10 mM lactate, 1 mM pyruvate, 1 hour incubation, read-out: IC50 Glucose Production
# Protocol: Hepatocytes were prepared from overnight fasted Sprague-Dawley rats (250–300 g) according to the procedure of Berry and Friend (Berry, M. N., Friend, D. S., 1969, J. Cell. Biol. 43, 506–520) as modified by Groen (Groen, A. K., Sips, H. J., Vervoorn, R. C., Tager, J. M. , 1982, Eur. J. Biochem. 122, 87–93). Hepatocytes (75 mg wet weight/ml) were incubated in 1 ml Krebs-bicarbonate buffer containing 10 mM Lactate, 1 mM pyruvate, 1 mg/ml BSA, and test compound concentrations from 1 to 500 μM. Incubations were carried out in a 95% oxygen, 5% carbon dioxide atmosphere in closed, 50-ml Falcon tubes submerged in a rapidly shaking water bath (37° C.). After 1 hour, an aliquot (0.25 ml) was removed, transferred to an Eppendorf tube and centrifuged. 50 μl of supernatant was then assayed for glucose content using a Sigma Glucose Oxidase kit as per the manufacturer's instructions.
# [7] = Rattus norvegicus, iv, 10 mg/kg i.v.
compound,measurement,setting,value
"Cc1nc(-c2ccc(P(=O)(OCOC(=O)C(C)(C)C)OCOC(=O)C(C)(C)C)o2)c(CC(C)C)s1 [Compound 20.3, 2-Methyl-5-isobutyl-4-{2-[5-(dipivaloyloxymethyl)phosphono]furanyl}thiazole]",% Oral bioavailability,[1],17.5%
"CCc1sc(N)nc1-c1ccc(P(=O)(O)O)o1 [Compound 3.21, 2-Amino-5-ethyl-4-[2-(5-phosphono)furanyl]thiazole]",Plasma Conc.,[2],25 ± 1 µM
"CC(C)Cc1sc(N)nc1-c1ccc(P2(=O)OCCC(c3cccc(Cl)c3)O2)o1 (stereo not shown) [Compound 19.46, 2-Amino-5-isobutyl-4-{2-[5-(1-(3-chlorophenyl)-1,3-propyl)phosphono]furanyl}thiazole]",% Glucose Lowering (maximum),"[3]; dose 30 mg/kg, time point 2 h",53%
"CCc1c(SC#N)cc(OCP(=O)(O)O)c2nc(N)sc12 [Compound 41.1, 2-amino-7-ethyl-6-thiocyano-4-phosphonomethoxybenzothiazole]",inhibition in vivo at 10 mg/kg,[4]; [7],80%
"CCCc1cnc(N)nc1-c1ccc(P(=O)(O)O)o1 [Compound 16.1, 2-amino-5-propyl-4-[2-(5-phosphono)furanyl]pyrimidine]",melting point,,258 to 259 °C
"CC(C)Cc1sc(N)nc1-c1ccc(P2(=O)OCCC(c3ccc(F)c(Br)c3)O2)o1 (stereo not shown) [Compound 19.42, 2-Amino-5-isobutyl-4-{2-[5-(1-(4-fluoro-3-bromophenyl)-1,3-propyl)phosphono]furanyl}thiazole]",% excreted i.p.,[5],15.4%
same,% excreted p.o.,[5],8.1%
same,% absorption,[5],52%
same,% Glucose Lowering (maximum),"[3]; dose 30 mg/kg, time point 3 h",26%
same,% Oral bioavailability,[1],10%
"Cc1nc(-c2ccc(P(=O)(OCOC(=O)C(C)(C)C)OCOC(=O)C(C)(C)C)o2)cs1 [Compound 20.1, 2-methyl-4-[2-(5-dipivaloyloxymethylphosphono)furanyl]-thiazole]",% Oral bioavailability,[1],46%
"CCOC(=O)CNP(=O)(Oc1ccccc1)c1ccc(-c2nc(N)sc2CC(C)C)o1 (stereo not shown) [Compound 31.8, 2-amino-5-isobutyl-4-{2-[5-(O-phenyl-N-ethoxycarbonylmethyl)phosphonamido]furanyl}thiazole]",IC50,[6],3000 nM
same,% Oral bioavailability,[1],14%
"CC(C)Cc1sc(N)nc1-c1ccc(P2(=O)OCCC(c3cc(Cl)cc(Cl)c3)O2)o1 (stereo not shown) [Compound 19.48, 2-Amino-5-isobutyl-4-{2-[5-(1-(3,5-dichlorophenyl)-1,3-propyl)phosphono]furanyl}thiazole]",IC50,[6],6500 nM
same,% excreted i.p.,[5],11.3%
same,% excreted p.o.,[5],11.6%
same,% absorption,[5],100%
same,% Glucose Lowering (maximum),"[3]; dose 30 mg/kg, time point 2 h",63%
same,% Oral bioavailability,[1],12%
"CC(C)Cc1sc(Br)nc1-c1ccc(P(=O)(O)O)o1 [Compound 5.1, 2-bromo-5-isobutyl-4-[2-(5-phosphono)furanyl]thiazole]",Liver Conc.,[2],6.7 ± 0.7 nmol/g
same,Plasma Conc.,[2],100 ± 5.7 µM
"CCOC(=O)c1sc(N)nc1-c1ccc(P(=O)(O)O)o1 [Compound 3.25, 2-Amino-5-ethoxycarbonyl-4-[2-(5-phosphono)furanyl]thiazole]",inhibition in vivo at 10 mg/kg,[4]; [7],76%
"Nc1ccc(C2CC2)c(-c2ccc(P(=O)(O)O)o2)n1 [Compound 15.20, 2-Amino-5-cyclopropyl-6-[2-(5-phosphono)furanyl]pyridine]",inhibition in vivo at 10 mg/kg,[4]; [7],24%
same,concentration at 1 h,[2],66.3 ± 3.9 µM
same,Liver Conc.,[2],13.1 ± 2.3 nmol/g
"CCCSc1oc(N)nc1-c1ccc(P(=O)(O)O)o1 [Compound 10.43, 2-Amino-5-propylthio-4-[2-(5-phosphono)furanyl]oxazole]",inhibition in vivo at 10 mg/kg,[4]; [7],61%
"Cc1nc(-c2ccc(P3(=O)OCCC(c4ccncc4)O3)o2)c(CC(C)C)s1 (stereo not shown) [Compound 19.17, 5-Isobutyl-2-methyl-4-{2-[5-(1-(4-pyridyl)-1,3-propyl)phosphono]furanyl}-thiazole]",% Oral bioavailability,[1],16.2%
"CCCSc1sc(N)nc1-c1ccc(P(=O)(O)O)o1 [Compound 3.58, 2-Amino-5-propylthio-4-[2-(5-phosphono)furanyl]thiazole hydrobromide]",IC50,[6]; Hepatocyte,1200 nM
same,inhibition in vivo at 10 mg/kg,[4]; [7],82%
"CC(C)Cc1sc(N)nc1-c1ccc(P(=O)(OCOC(=O)C(C)(C)C)OCOC(=O)C(C)(C)C)o1 [Compound 20.4, 2-Amino-5-isobutyl-4-{2-[5-(dipivaloyloxymethyl)phosphono]furanyl}thiazole]",% Oral bioavailability,[1],11%
2-Methyl-5-isobutyl-4-{2-[5-bis(thiobenzoylmethyl)phosphono]furanyl}thiazole [Compound 19.9],% Oral bioavailability,[1],18.5%
"Nc1nc(-c2ccc(P(=O)(O)O)o2)c(C2CC2)s1 [Compound 3.27, 2-Amino-5-cyclopropyl-4-[2-(5-phosphono)furanyl]thiazole]",% Glucose Lowering (maximum),"[3]; dose 60 mg/kg, time point 3 h",61%
same,% Oral bioavailability,[1],32%
"CCCc1oc(N)nc1-c1ccc(P(=O)(O)O)o1 [Compound 10.2, 2-Amino-5-propyl-4-[2-(5-phosphono)furanyl]oxazole]",% Glucose Lowering (maximum),"[3]; dose 90 mg/kg, time point 3 h",36%
same,bioavailability,"[1]; Sprague-Dawley, rat, urine",22%
same,concentration at 1 h,[2],22 ± 1.5 µM
"CCOC(=O)OCOP(=O)(OCOC(=O)OCC)c1ccc(-c2nc(N)sc2CC(C)C)o1 [Compound 20.9, 2-Amino-5-isobutyl-4-{-2-[5-bis(ethoxycarbonyloxymethyl)phosphono]-furanyl}thiazole]",IC50,[6],2200 nM
same,% Glucose Lowering (maximum),"[3]; dose 90 mg/kg, time point 3 h",67%
same,% Oral bioavailability,[1],17.4%
"CSc1[se]c(N)nc1-c1ccc(P(=O)(O)O)o1 [Compound 3.71, 2-Amino-5-methylthio-4-[2-(5-phosphono)furanyl]selenazole]","i.v. Glucose Lowering, %",[4]; 10 mg/kg i.v.,72%
"CC(C)Cc1sc(N)nc1-c1ccc(P2(=O)OCCC(c3ccncc3)O2)o1 (stereo not shown) [Compound 19.18, 2-Amino-5-isobutyl-4-[2-{5-[1-(4-pyridyl)-propan-1,3-yl]phosphonol}furanyl)-thiazole]",IC50,[6],10000 nM
"Cc1nc(-c2ccc(P(=O)(O)O)o2)c(CC(C)C)s1 [Compound 3.2, 2-Methyl-5-isobutyl4-[2-(5-phosphono)furanyl]thiazole]",inhibition in vivo at 30 mg/kg,"[4]; Rattus norvegicus, iv, 30 mg/kg i.v.",55%
Nc1nc(-c2ccc(P(=O)(O)O)o2)c(-c2cccs2)s1 [Compound 6.3],inhibition in vivo at 10 mg/kg,[4]; [7],24%
"CCc1sc(N)nc1C(=O)OCP(=O)(O)O [Compound 18.3, 2-amino-5-ethyl-4-phosphonomethoxycarbonylthiazole]",inhibition in vivo at 10 mg/kg,[4]; [7],75%
"Nc1nc(C(=O)OCP(=O)(O)O)c(Br)s1 [Compound 18.2, 2-amino-5-bromo-4-phosphonomethoxycarbonylthiazole]",inhibition in vivo at 10 mg/kg,[4]; [7],80%
"Cc1ccc(OCP(=O)(O)O)c2nc(N)sc12 [Compound 35.3, 2-Amino-4-phosphonomethoxy-7-methylbenzothiazole]",inhibition in vivo at 10 mg/kg,[4]; [7],65%
"COC(=O)C(C)NP(=O)(Oc1ccccc1)c1ccc(-c2nc(N)sc2CC(C)C)o1 (stereo not shown) [Compound 31.6, 2-amino-5-isobutyl-4-{2-[5-(O-phenyl-N-(1-methoxycarbonyl)ethyl)phosphonamido]furanyl}thiazole]",IC50,[6],2300 nM
same,% Glucose Lowering (maximum),"[3]; dose 10 mg/kg, time point 3 h",60%
same,% Oral bioavailability,[1],19%
